The record followed here is patent US20230116703A1, “NOVEL ERGOLINES AND METHODS OF TREATING MOOD DISORDERS” (priority 2021, published 2023).

Like-named read-outs stand apart in the source and are kept apart here.

One test has as its target D1 receptor (Homo sapiens, UniProt P21728). As to the kind of experiment: FLIPR Ca^2+ flux agonist assay at D1. The format is cell-based. The protocol: Functional Assays at Adrenergic and Dopamine Receptors. Agonist activity at Alpha1A, Alpha2A, D1, and D2 receptors was determined using a FLIPR Ca^2+ flux assay at WuXi AppTec (Hong Kong) Limited according to their standard protocols. Briefly, stably transfected cells expressing the receptor of interest were grown and plated in a 384 well plate and incubated at 37° C. and 5% CO2 overnight. A solution of 250 mM probenecid in 1 mL FLIPR assay buffer was prepared fresh. This was combined with a fluorescent dye (Fluo-4 Direct™) to make a final assay concentration of 2.5 mM. […] The fluorescent dye was then added to the assay plate along with assay buffer to a final volume of 40 μL. The cell plate was incubated for 50 min at 37° C. and 5% CO2 and placed into the FLIPR Tetra along with the compound plate. 10 μL of references and compounds were then transferred from the compound plate into the cell plate and the fluorescent signal was read.

Test [1] addresses T1, 5-HT2A receptor (Homo sapiens, UniProt P28223).
T1 construct: host or cells: HEK293
As to the kind of experiment: biochemical. As to conditions: 1 nM [^3H]ketanserin, HEK293 stable cell line; read-out: 5-HT2A Receptor Ki (nM) ([^3H]ketanserin). It counts as binding. In short, it runs like this:
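Values reflect [^3H]ketanserin binding competition. Assay conditions were adapted from the literature.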

Test [2] addresses T1, 5-HT2A receptor. The test is described as follows: PathHunter beta-arrestin recruitment assay at 5-HT2A. It counts as cell-based. To be noted: for agonist type in arrestin recruitment assay (in words): 5-HT2A beta-arrestin. Put shortly:
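Cells co-express PK-tagged 5-HT2A and beta-arrestin fused to a beta-galactosidase deletion mutant, so arrestin recruitment restores enzyme activity, read by chemiluminescence; cells were held at 37° C before testing. Agonist % activity = RLU over vehicle, relative to the maximal control ligand.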
(In general: Recruitment of arrestin is a read-out of receptor activation apart from second messengers.)

For a further test, the system named is C57BL/6 mice. The test is described as follows: Head twitch response (HTR) in mice. The format is in vivo, mouse. To be noted: SC; for ED50: 20 min, read-out: ED50 (95% CI); for ED50 / Most Efficacious Dose / Emax (95% CI): mouse HTR; for ED50 / Emax (95% CI): 20 min observation, curve fit, poor in some cases; for # HTR at Most Efficacious Dose: head twitches in 20 min.

Another test addresses T2, Alpha1A receptor (Homo sapiens, UniProt P35348).
T2 sequence (P35348 1-466): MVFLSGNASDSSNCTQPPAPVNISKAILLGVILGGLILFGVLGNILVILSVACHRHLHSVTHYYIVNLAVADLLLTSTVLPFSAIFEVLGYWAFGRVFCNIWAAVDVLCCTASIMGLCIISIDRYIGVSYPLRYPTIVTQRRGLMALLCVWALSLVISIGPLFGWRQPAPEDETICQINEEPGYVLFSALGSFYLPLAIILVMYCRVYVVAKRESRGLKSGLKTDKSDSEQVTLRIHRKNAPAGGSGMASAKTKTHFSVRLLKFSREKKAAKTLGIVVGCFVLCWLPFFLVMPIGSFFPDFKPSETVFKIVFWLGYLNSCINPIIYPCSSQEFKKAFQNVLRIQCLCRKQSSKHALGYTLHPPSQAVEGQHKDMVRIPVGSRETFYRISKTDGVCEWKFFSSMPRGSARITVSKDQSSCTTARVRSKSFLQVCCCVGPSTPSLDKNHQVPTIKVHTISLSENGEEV
The test is described as follows: FLIPR Ca^2+ flux agonist assay at Alpha1A. It counts as cell-based. The protocol:
Disclosed compounds were tested for agonist activity at several adrenergic (Alpha1A and Alpha2A) and dopamine (D1 and D2) receptor subtypes using Ca^2+ flux functional assays, with the results summarized in Table 6. Selectivity for the 5-HT2A receptor over these other targets varied depending on the specific target and compound.
Functional Assays at Adrenergic and Dopamine Receptors. Agonist activity at Alpha1A, Alpha2A, D1, and D2 receptors was determined using a FLIPR Ca^2+ flux assay at WuXi AppTec (Hong Kong) Limited according to their standard protocols. Briefly, stably transfected cells expressing the receptor of interest were grown and plated in a 384 well plate and incubated at 37° C. and 5% CO2 overnight. A solution of 250 mM probenecid in 1 mL FLIPR assay buffer was prepared fresh. This was combined with a fluorescent dye (Fluo-4 Direct™) to make a final assay concentration of 2.5 mM. Compounds were diluted 1:3.16 for 10 points and 750 nL was added to a 384 well compound plate using ECHO along with 30 μL assay buffer. The fluorescent dye was then added to the assay plate along with assay buffer to a final volume of 40 μL. The cell plate was incubated for 50 min at 37° C. and 5% CO2 and placed into the FLIPR Tetra along with the compound plate. 10 μL of references and compounds were then transferred from the compound plate into the cell plate and the fluorescent signal was read.

Setting [3] is: Ca^2+ flux, agonist, read-out: D1 EC50.
Where [4] appears, read: beta-arrestin recruitment, read-out: 5-HT2A Arrestin EC50.
[5] abbreviates: Ca^2+ flux, agonist, read-out: Alpha1A EC50.

T1 sequence (P28223 whole entry): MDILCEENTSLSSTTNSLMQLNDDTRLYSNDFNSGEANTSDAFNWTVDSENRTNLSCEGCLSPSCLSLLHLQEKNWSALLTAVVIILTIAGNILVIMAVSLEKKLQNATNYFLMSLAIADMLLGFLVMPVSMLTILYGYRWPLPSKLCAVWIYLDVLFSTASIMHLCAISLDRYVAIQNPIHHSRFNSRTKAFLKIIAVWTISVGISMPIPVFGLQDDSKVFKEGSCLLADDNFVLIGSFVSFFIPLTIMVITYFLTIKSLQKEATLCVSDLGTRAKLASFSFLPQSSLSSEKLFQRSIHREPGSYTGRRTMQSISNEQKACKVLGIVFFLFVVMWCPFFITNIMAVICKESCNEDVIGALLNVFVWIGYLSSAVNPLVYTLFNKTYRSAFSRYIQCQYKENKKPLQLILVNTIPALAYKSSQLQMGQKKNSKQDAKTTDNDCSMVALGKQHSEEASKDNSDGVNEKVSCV
Chain of D1 receptor (P21728 whole entry): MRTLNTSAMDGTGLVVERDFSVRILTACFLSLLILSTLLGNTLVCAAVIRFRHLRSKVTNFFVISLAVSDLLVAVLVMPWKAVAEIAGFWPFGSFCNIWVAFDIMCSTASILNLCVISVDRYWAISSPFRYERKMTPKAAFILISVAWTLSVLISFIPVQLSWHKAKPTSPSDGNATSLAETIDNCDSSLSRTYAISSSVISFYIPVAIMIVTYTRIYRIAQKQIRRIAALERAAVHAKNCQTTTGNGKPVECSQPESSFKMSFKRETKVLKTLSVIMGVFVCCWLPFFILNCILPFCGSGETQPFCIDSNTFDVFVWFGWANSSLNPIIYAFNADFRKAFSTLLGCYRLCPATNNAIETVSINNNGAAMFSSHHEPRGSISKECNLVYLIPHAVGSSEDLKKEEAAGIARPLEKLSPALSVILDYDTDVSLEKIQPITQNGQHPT

On to `CCCN1C[C@H](C(=O)N(CC)CC)C=C2c3cccc4[nH]cc(c34)C[C@H]21` [Compound 1, (6aR,9R)—N,N-diethyl-7-propyl-4,6,6a,7,8,9-hexahydroindolo[4,3-fg]quinoline-9-carboxamide], for which the EC50 on D1 receptor worked out at 4.64 nM. Besides, at 5-HT2A receptor [1], the inhibition constant Ki came out at 1.06 nM. For the same compound, at 5-HT2A receptor [2], the 50% effective concentration (EC50) amounted to 2.01 nM and the “agonist type in arrestin recruitment assay (in words)” value (“agonist type” below) is listed as “full agonists”. Moreover, in the test on C57BL/6 mice, the ED50 was found to be 0.0946 mg/kg, the “Most Efficacious Dose” value was 1 mg/kg and the “Emax (95% CI)” value was 21.63 (18.45-25.78). Besides, in the test with C57BL/6 mice (mouse), the “induction of head twitch response (in words)” value is “robust and dose-dependent HTR”. The same compound showed an EC50 at Alpha1A receptor of 8.82 nM.
On to `CCN(CC)C(=O)[C@@H]1C=C2c3cccc4[nH]cc(c34)C[C@H]2N(CCCF)C1` [Compound 2, (6aR,9R)—N,N-diethyl-7-(3-fluoropropyl)-4,6,6a,7,8,9-hexahydroindolo[4,3-fg]quinoline-9-carboxamide], for which a half-maximal response at D1 receptor (EC50) required 86.4 nM. Besides, the Ki at 5-HT2A receptor [1] was determined as 2.79 nM. Also, at 5-HT2A receptor [2], it took 2.27 nM to reach a half-maximal effect (EC50) and the “agonist type” value is given as “full agonists”. In the test on C57BL/6 mice, the ED50 came out at 0.0703 mg/kg, the “Most Efficacious Dose” value came to 0.32 mg/kg and the “Emax (95% CI)” value was 20.47 (18.43-22.6). At Alpha1A receptor, this compound displayed an EC50 of 237 nM.
In turn, `CCCN1C[C@H](C(=O)N[C@H](C)CC)C=C2c3cccc4[nH]cc(c34)C[C@H]21` [Compound 3, (6aR,9R)—N—((R)-sec-butyl)-7-propyl-4,6,6a,7,8,9-hexahydroindolo[4,3-fg]quinoline-9-carboxamide] had an EC50 at D1 receptor of 47.9 nM. Moreover, the Ki on 5-HT2A receptor [1] worked out at 1.36 nM. In addition, at 5-HT2A receptor [2], the EC50 is less than 0.509 nM and the “agonist type” value is listed as “full agonists”. In the test on C57BL/6 mice, the ED50 turned out to be 0.0401 mg/kg, the “Most Efficacious Dose” value is given as 0.32 mg/kg and the “Emax (95% CI)” value is reported as 25.56 (22.08-29.36). In the test with C57BL/6 mice (mouse), the “# HTR at Most Efficacious Dose” value came out at 27.0. At Alpha1A receptor, this compound returned an EC50 of 42.3 nM.
Compound `CCCN1C[C@H](C(=O)N2[C@@H](C)C[C@@H]2C)C=C2c3cccc4[nH]cc(c34)C[C@H]21` [Compound 4, ((2S,4S)-2,4-dimethylazetidin-1-yl)((6aR,9R)-7-propyl-4,6,6a,7,8,9-hexahydroindolo[4,3-fg]quinolin-9-yl)methanone] showed an EC50 on D1 receptor of 81.8 nM. On 5-HT2A receptor [1], the Ki stood at 3.07 nM. Besides, at 5-HT2A receptor [2], the 50% effective concentration (EC50) is 1.44 nM and the “agonist type” value was “full agonists”. For the same compound, in the test with C57BL/6 mice, the median effective dose (ED50) came to 0.376 mg/kg, the “Most Efficacious Dose” value worked out at 0.1 mg/kg and the “Emax (95% CI)” value was 4.034 (2.965-5.217). Also, in the test with C57BL/6 mice (mouse), the “efficacy in HTR assay (in words)” value is “less efficacious”. On Alpha1A receptor, this compound returned a half-maximal effective concentration (EC50) of 116 nM.
Regarding `CCCN1C[C@H](C(=O)NC(CC)CC)C=C2c3cccc4[nH]cc(c34)C[C@H]21` [Compound 6, (6aR,9R)—N-(pentan-3-yl)-7-propyl-4,6,6a,7,8,9-hexahydroindolo[4,3-fg]quinoline-9-carboxamide], on D1 receptor, a half-maximal response (EC50) required 18.1 nM. Also, on 5-HT2A receptor [1], the inhibitory constant (Ki) was found to be 1.16 nM. In addition, at 5-HT2A receptor [2], the EC50 was found to be 1.91 nM and the “agonist type” value was “full agonists”. For the same compound, in the test on C57BL/6 mice, the ED50 came out at 0.139 mg/kg, the “Most Efficacious Dose” value stood at 1 mg/kg and the “Emax (95% CI)” value was 23.06 (19.86-27.47).
Take `CCN(CC)C(=O)[C@@H]1C=C2c3cccc4[nH]cc(c34)C[C@H]2N(Cc2ccccc2OC)C1` [Compound 10, (6aR,9R)—N,N-diethyl-7-(2-methoxybenzyl)-4,6,6a,7,8,9-hexahydroindolo[4,3-fg]quinoline-9-carboxamide]: the EC50 on D1 receptor (setting [3]) turned out to be 2780 nM. Moreover, on 5-HT2A receptor [1], the inhibition constant Ki amounted to 32.7 nM. The “agonist type” value on 5-HT2A receptor [2] was “partial agonists”. At 5-HT2A receptor [2] (setting [4]), the EC50 was found to be 8.47 nM. Besides, in the test with C57BL/6 mice, the ED50 worked out at 1.26 mg/kg, the “Most Efficacious Dose” value is given as 3.2 mg/kg and the “Emax (95% CI)” value is given as 7.749 (4.126-???). For the same compound, in the test on C57BL/6 mice (mouse), the “efficacy in HTR assay (in words)” value is listed as “low efficacy” and the “# HTR at Most Efficacious Dose” value is 6.5. At Alpha1A receptor (setting [5]), the half-maximal effective concentration (EC50) was more than 31600 nM.
Consider `CCN(CC)C(=O)[C@@H]1C=C2c3cccc4[nH]cc(c34)C[C@H]2N(CCc2ccccc2OC)C1` [Compound 11, (6aR,9R)—N,N-diethyl-7-(2-methoxyphenethyl)-4,6,6a,7,8,9-hexahydroindolo[4,3-fg]quinoline-9-carboxamide], for which, on D1 receptor (setting [3]), the EC50 came out at 1590 nM. In addition, on 5-HT2A receptor [1], the inhibition constant (Ki) turned out to be 0.69 nM. Moreover, on 5-HT2A receptor [2], the “agonist type” value was “partial agonists”. Moreover, the EC50 at 5-HT2A receptor [2] (setting [4]) worked out at 1.27 nM. Also, in the test with C57BL/6 mice, the ED50 is 2.21 mg/kg, the “Most Efficacious Dose” value is 3.2 mg/kg and the “Emax (95% CI)” value is 19.79 (12.66-80.7). For the same compound, in the test on C57BL/6 mice (mouse), the “efficacy in HTR assay (in words)” value was “low efficacy” and the “# HTR at Most Efficacious Dose” value turned out to be 12.0. Also, the EC50 at Alpha1A receptor (setting [5]) was more than 31600 nM.

By EC50 is commonly meant the concentration at which the effect is half-maximal. Usually Ki stands for the dissociation constant of the complex between target and ligand, obtained from inhibition or displacement. The ED50 is the midpoint of the dose-response relation.
